For 25 compounds, IC50 results are on record in patent US20260042755A1, “GPR6 INVERSE AGONISTS” (MapLight Therapeutics, Inc., priority 2022, published 2026).

The target in one experiment is T1, GPR6 (Homo sapiens, UniProt P46095).
T1 construct: expressed in transfected cells; host or cells: CHO cells
Kind of experiment: GPR6 antagonist functional cAMP assay (LANCE Ultra cAMP TR-FRET, CHO cells stably expressing GPR6). It counts as cell-based. The settings on record: procedure of Example 24. Put shortly:
(§1)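 10,000 cells/well; KRB buffer + 0.1% BSA + 150 μM Ro 20-1724; cpd 45 min, 37 °C, 0.1% DMSO; TR-FRET cAMP, 665 nm; 4-PL fit, normalized to DMSO (0.1%) and reference (100%) → IC50.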
Background: Cyclic AMP is a second messenger, typically raised through Gs and lowered through Gi signalling.

The next experiment has as its target T2, GPR3 (Homo sapiens, UniProt P46089).
T2 construct: expressed in transfected cells; host or cells: CHO cells
Nature of the experiment: GPR3 antagonist functional cAMP assay (LANCE Ultra cAMP TR-FRET, CHO cells stably expressing GPR3). Type of experiment: cell-based. The following applies: procedure of Example 24. Put shortly:
as §1

T1 sequence (P46095 whole entry): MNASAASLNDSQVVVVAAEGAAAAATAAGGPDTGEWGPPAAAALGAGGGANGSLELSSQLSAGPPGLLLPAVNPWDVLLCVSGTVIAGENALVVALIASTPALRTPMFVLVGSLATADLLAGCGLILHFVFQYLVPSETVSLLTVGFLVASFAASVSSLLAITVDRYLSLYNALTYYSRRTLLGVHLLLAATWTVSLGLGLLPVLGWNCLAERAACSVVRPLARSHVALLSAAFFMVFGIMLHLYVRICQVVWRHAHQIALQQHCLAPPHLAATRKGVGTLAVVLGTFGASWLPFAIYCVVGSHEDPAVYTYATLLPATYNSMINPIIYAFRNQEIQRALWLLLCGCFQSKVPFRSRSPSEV
T2 sequence (P46089 whole entry, species assumed): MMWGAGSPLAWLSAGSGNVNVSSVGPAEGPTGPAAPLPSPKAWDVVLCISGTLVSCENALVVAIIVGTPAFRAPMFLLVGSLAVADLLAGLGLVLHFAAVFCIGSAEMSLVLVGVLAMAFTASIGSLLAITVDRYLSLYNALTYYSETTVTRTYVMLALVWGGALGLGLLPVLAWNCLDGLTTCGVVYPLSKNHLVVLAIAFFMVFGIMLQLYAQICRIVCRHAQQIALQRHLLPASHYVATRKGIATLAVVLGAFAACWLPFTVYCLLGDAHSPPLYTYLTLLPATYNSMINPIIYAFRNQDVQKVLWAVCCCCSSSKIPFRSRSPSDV

One may read the IC50 as the midpoint of a concentration-inhibition curve. `CC(=O)N1CCc2nc(N3CCN(Cc4c(F)cccc4F)CC3)c(-c3cnn(C)c3)nc2C1` [Compound 346, 1-(2-{4-[(2,6-difluorophenyl)methyl]piperazin-1-yl}-3-(1-methyl-1H-pyrazol-4-yl)-5H,6H,7H,8H-pyrido[3,4-b]pyrazin-6-yl)ethan-1-one]: the figures for the IC50 on GPR6 and on GPR3 were 1000 to 30000 nM and 100 to 1000 nM, respectively.

For the compound `CC(=O)N1CCc2nc(N3CCN(Cc4ccc(F)cc4C)CC3)c(-c3cnn(C)c3)nc2C1` [Compound 347, 1-(2-{4-[(4-fluoro-2-methylphenyl)methyl]piperazin-1-yl}-3-(1-methyl-1H-pyrazol-4-yl)-5H,6H,7H,8H-pyrido[3,4-b]pyrazin-6-yl)ethan-1-one], the IC50 against GPR6 and against GPR3 was 1000 to 30000 nM each time.

For the compound `CC(=O)N1CCc2nc(N3CCN(Cc4ccc(Cl)cc4F)CC3)c(-c3cnn(C)c3)nc2C1` [Compound 348, 1-(2-{4-[(4-chloro-2-fluorophenyl)methyl]piperazin-1-yl}-3-(1-methyl-1H-pyrazol-4-yl)-5H,6H,7H,8H-pyrido[3,4-b]pyrazin-6-yl)ethan-1-one], the IC50 at GPR6 was in the range of 100 to 1000 nM; against GPR3, 1000 to 30000 nM.

As for `CC(=O)N1CCc2nc(N3CCN(Cc4cc(Cl)ccc4F)CC3)c(-c3cnn(C)c3)nc2C1` [Compound 349, 1-(2-{4-[(5-chloro-2-fluorophenyl)methyl]piperazin-1-yl}-3-(1-methyl-1H-pyrazol-4-yl)-5H,6H,7H,8H-pyrido[3,4-b]pyrazin-6-yl)ethan-1-one], the IC50 at GPR6 was below 100 nM; at GPR3, 1000 to 30000 nM.

Take `CC(=O)N1CCc2nc(N3CCN(Cc4ccc(Cl)cc4Cl)CC3)c(-c3cnn(C)c3)nc2C1` [Compound 350, 1-(2-{4-[(2,4-dichlorophenyl)methyl]piperazin-1-yl}-3-(1-methyl-1H-pyrazol-4-yl)-5H,6H,7H,8H-pyrido[3,4-b]pyrazin-6-yl)ethan-1-one]: the IC50 against GPR6 and against GPR3 was 1000 to 30000 nM each time.

As for `CC(=O)N1CCc2nc(N3CCN(Cc4ccccc4C#N)CC3)c(-c3cnn(C)c3)nc2C1` [Compound 351, 2-({4-[6-acetyl-3-(1-methyl-1H-pyrazol-4-yl)-5H,6H,7H,8H-pyrido[3,4-b]pyrazin-2-yl]piperazin-1-yl}methyl)benzonitrile], the IC50 at GPR6 and against GPR3 was 1000 to 30000 nM throughout.

For `CC(=O)N1CCc2nc(N3CCN(Cc4ccc(F)cc4F)CC3)c(-c3cnn(C)c3)nc2C1` [Compound 352, 1-(2-{4-[(2,4-difluorophenyl)methyl]piperazin-1-yl}-3-(1-methyl-1H-pyrazol-4-yl)-5H,6H,7H,8H-pyrido[3,4-b]pyrazin-6-yl)ethan-1-one], the IC50 against GPR6 fell in the range of 100 to 1000 nM; against GPR3, 1000 to 30000 nM.

Consider `CC(=O)N1CCc2nc(N3CCN(Cc4cc(F)cc(F)c4)CC3)c(-c3cnn(C)c3)nc2C1` [Compound 353, 1-(2-{4-[(3,5-difluorophenyl)methyl]piperazin-1-yl}-3-(1-methyl-1H-pyrazol-4-yl)-5H,6H,7H,8H-pyrido[3,4-b]pyrazin-6-yl)ethan-1-one], for which the IC50 at GPR6 and on GPR3 was 1000 to 30000 nM each time.

Consider `CC(=O)N1CCc2nc(N3CCN(Cc4c(F)ccc(F)c4F)CC3)c(-c3cnn(C)c3)nc2C1` [Compound 354, 1-[3-(1-methyl-1H-pyrazol-4-yl)-2-{4-[(2,3,6-trifluorophenyl)methyl]piperazin-1-yl}-5H,6H,7H,8H-pyrido[3,4-b]pyrazin-6-yl]ethan-1-one], for which the IC50 at GPR6 and at GPR3 was 1000 to 30000 nM throughout.

`CC(=O)N1CCc2nc(N3CCN(Cc4ccc(F)cc4C#N)CC3)c(-c3cnn(C)c3)nc2C1` [Compound 355, 2-({4-[6-acetyl-3-(1-methyl-1H-pyrazol-4-yl)-5H,6H,7H,8H-pyrido[3,4-b]pyrazin-2-yl]piperazin-1-yl}methyl)-5-fluorobenzonitrile]: the IC50 on GPR6 and against GPR3 was 1000 to 30000 nM in each case.

For `CC(=O)N1CCc2nc(N3CCN(Cc4ccc(C#N)cc4F)CC3)c(-c3cnn(C)c3)nc2C1` [Compound 356, 4-({4-[6-acetyl-3-(1-methyl-1H-pyrazol-4-yl)-5H,6H,7H,8H-pyrido[3,4-b]pyrazin-2-yl]piperazin-1-yl}methyl)-3-fluorobenzonitrile], the IC50 against GPR6 and against GPR3 was 1000 to 30000 nM each time.

For the compound `CC(=O)N1CCc2nc(N3CCN(Cc4cc(C#N)ccc4F)CC3)c(-c3cnn(C)c3)nc2C1` [Compound 357, 3-({4-[6-acetyl-3-(1-methyl-1H-pyrazol-4-yl)-5H,6H,7H,8H-pyrido[3,4-b]pyrazin-2-yl]piperazin-1-yl}methyl)-4-fluorobenzonitrile], the IC50 against GPR6 and against GPR3 was 1000 to 30000 nM throughout.

With `CC(=O)N1CCc2nc(N3CCN(Cc4ccc(OC(F)F)cc4F)CC3)c(-c3cnn(C)c3)nc2C1` [Compound 358, 1-[2-(4-{[4-(difluoromethoxy)-2-fluorophenyl]methyl}piperazin-1-yl)-3-(1-methyl-1H-pyrazol-4-yl)-5H,6H,7H,8H-pyrido[3,4-b]pyrazin-6-yl]ethan-1-one], the IC50 against GPR6 and against GPR3 was 1000 to 30000 nM each time.

As to `CC(=O)N1CCc2nc(N3CCN(Cc4ccc(OC(F)(F)F)cc4)CC3)c(-c3cnn(C)c3)nc2C1` [Compound 359, 1-[3-(1-methyl-1H-pyrazol-4-yl)-2-(4-{[4-(trifluoromethoxy)phenyl]methyl}piperazin-1-yl)-5H,6H,7H,8H-pyrido [3,4-b]pyrazin-6-yl]ethan-1-one], the IC50 against GPR6 and against GPR3 was 1000 to 30000 nM each time.

On to `CC(=O)N1CCc2nc(N3CCN(Cc4cc(Cl)c(F)cc4F)CC3)c(-c3cnn(C)c3)nc2C1` [Compound 360, 1-(2-{4-[(5-chloro-2,4-difluorophenyl)methyl]piperazin-1-yl}-3-(1-methyl-1H-pyrazol-4-yl)-5H,6H,7H,8H-pyrido[3,4-b]pyrazin-6-yl)ethan-1-one], for which the figures for the IC50 at GPR6 and against GPR3 were 100 to 1000 nM and 1000 to 30000 nM, respectively.

Turning to `COc1cc(F)c(CN2CCN(c3nc4c(nc3-c3cnn(C)c3)CN(C(C)=O)CC4)CC2)cc1Cl` [Compound 361, 1-(2-{4-[(5-chloro-2-fluoro-4-methoxyphenyl)methyl]piperazin-1-yl}-3-(1-methyl-1H-pyrazol-4-yl)-5H,6H,7H,8H-pyrido[3,4-b]pyrazin-6-yl)ethan-1-one], the IC50 against GPR6 and against GPR3 was 1000 to 30000 nM each time.

Take `CCOc1ccc(CN2CCN(c3nc4c(nc3-c3cnn(C)c3)CN(C(C)=O)CC4)CC2)c(F)c1` [Compound 362, 1-(2-{4-[(4-ethoxy-2-fluorophenyl)methyl]piperazin-1-yl}-3-(1-methyl-1H-pyrazol-4-yl)-5H,6H,7H,8H-pyrido[3,4-b]pyrazin-6-yl)ethan-1-one]: the IC50 against GPR6 and on GPR3 was 1000 to 30000 nM throughout.

Turning to `CC(=O)N1CCc2nc(N3CCC(COc4ccccc4)C3)c(-c3cnn(C)c3)nc2C1` (centres unmarked) [Compound 363, 1-[3-(1-methyl-1H-pyrazol-4-yl)-2-[3-(phenoxymethyl)pyrrolidin-1-yl]-5H,6H,7H,8H-pyrido[3,4-b]pyrazin-6-yl]ethan-1-one], the IC50 on GPR6 and at GPR3 was 1000 to 30000 nM each time.

Take `CC(=O)N1CCc2nc(N3CCC(COc4cc(F)ccc4F)C3)c(-c3cnn(C)c3)nc2C1` (centres unmarked) [Compound 364, 1-(2-{3-[(2,5-difluorophenoxy)methyl]pyrrolidin-1-yl}-3-(1-methyl-1H-pyrazol-4-yl)-5H,6H,7H,8H-pyrido[3,4-b]pyrazin-6-yl)ethan-1-one]: the IC50 against GPR6 and against GPR3 was 1000 to 30000 nM throughout.

`CC(=O)N1CCc2nc(N3CCC(C(=O)Nc4ccc(F)cc4F)C3)c(-c3cnn(C)c3)nc2C1` (centres unmarked) [Compound 365, 1-[6-acetyl-3-(1-methyl-1H-pyrazol-4-yl)-5H,6H,7H,8H-pyrido [3,4-b]pyrazin-2-yl]-N-(2,4-difluorophenyl)pyrrolidine-3-carboxamide]: the IC50 against GPR6 and on GPR3 was at least 30000 nM throughout.

As to `CCn1cc(-c2nc3c(nc2N2CCC(Oc4ccc(F)cc4F)CC2)CCN(C(=O)C2COC2)C3)cn1` [Compound 366, 4-(2,4-difluorophenoxy)-1-[3-(1-ethyl-1H-pyrazol-4-yl)-6-(oxetane-3-carbonyl)-5H,6H,7H,8H-pyrido[3,4-b]pyrazin-2-yl]piperidine], the IC50 lay within 100 to 1000 nM at GPR6 and 1000 to 30000 nM against GPR3.

With `CCn1cc(-c2nc3cnc(NC(C)=O)cc3nc2N2CCC(Oc3ccc(F)cc3F)CC2)cn1` [Compound 367, N-{2-[4-(2,4-difluorophenoxy)piperidin-1-yl]-3-(1-ethyl-1H-pyrazol-4-yl)pyrido[3,4-b]pyrazin-7-yl}acetamide], the IC50 against GPR6 and on GPR3 was 1000 to 30000 nM each time.

Turning to `Cn1cc(-c2nc3cnccc3nc2N2CCC(Cc3ccc(F)cc3F)CC2)cn1` [Compound 368, 4-[(2,4-difluorophenyl)methyl]-1-[3-(1-methyl-1H-pyrazol-4-yl)pyrido[3,4-b]pyrazin-2-yl]piperidine], the results for the IC50 against GPR6 and at GPR3 were below 100 nM and 100 to 1000 nM, respectively.

For the compound `Cn1cc(-c2nc3cnc(C4CNC(=O)O4)cc3nc2N2CCC(Oc3ccc(F)cc3F)CC2)cn1` (centres unmarked) [Compound 371, 5-(2-(4-(2,4-difluorophenoxy)piperidin-1-yl)-3-(1-methyl-1H-pyrazol-4-yl)pyrido[3,4-b]pyrazin-7-yl)oxazolidin-2-one], the IC50 on GPR6 lay in the range of 100 to 1000 nM; against GPR3 it was 1000 to 30000 nM.

`CC(=O)N1CCc2nc(N3CCC(Oc4ccc(F)cc4F)CC3)c(-c3ccc(F)c(N)n3)nc2C1` [Compound 372, 1-{3-(6-amino-5-fluoro-2-pyridyl)-2-[4-(2,4-difluorophenoxy)-1-piperidyl]-5,6,7,8-tetrahydro-1,4,6-triaza-6-naphthyl}-1-ethanone]: the IC50 on GPR6 is 100 to 1000 nM; against GPR3, 1000 to 30000 nM.
